Values quoted from earlier work in patent US20260069708A1 (priority 2022, published 2026).

Conditions: reportedly

COc1cccc2c1C(=O)c1c(O)c3c(c(O)c1C2=O)C[C@@](O)(C(=O)CO)C[C@@H]3O[C@H]1C[C@H](N)[C@H](O)[C@H](C)O1 [Dox, doxorubicin]
fold lower IC50 than irinotecan: 10-100 fold
